In test [1] the target is T1, NTHi Nuc (Haemophilus influenzae, UniProt Q57519).
T1 construct: gene HI_1296; N-terminal 6xHis tag (pET151/D-TOPO) cleaved with TEV protease; E. coli BL21*(DE3)
As to the kind of experiment: thermal unfolding by dynamic light scattering. As to conditions: pH 7; excess pdTp; onset temperature with ligand, not a shift; ramp 1.0 °C/min. The format is binding. The source says:
thermal unfolding by dynamic light scattering on NTHi Nuc

Test [2] has as its target T1, NTHi Nuc. As to the kind of experiment: FRET nuclease assay, Cy3/BHQ2 single-stranded 30-mer DNA. The format is biochemical. The conditions noted are these: competitive (stated); pdTp 0.015 and 0.03 nM; enzyme 0.035 nM; 2 µM FRET substrate; 26 °C.

Molecules are shown by their SMILES.

T1 sequence (Q57519 21-178): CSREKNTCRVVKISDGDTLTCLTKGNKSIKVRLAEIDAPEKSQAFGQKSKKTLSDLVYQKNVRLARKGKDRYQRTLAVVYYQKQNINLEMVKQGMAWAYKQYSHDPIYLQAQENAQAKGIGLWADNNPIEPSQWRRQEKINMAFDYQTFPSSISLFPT

On to `Cc1cn([C@H]2C[C@H](OP(=O)(O)O)[C@@H](COP(=O)(O)O)O2)c(=O)[nH]c1=O` [thymidine 3,5-bisphosphate], for which, in test [1], the Tonset stood at 48.1 ± 1.45 °C. In test [2], the “FRET nuclease assay, Cy3/BHQ2 single-stranded 30-mer DNA” value was “Half and equimolar concentrations of pdTp impacted initial rates of endonuclease activity”.
